Test results as given in ChEMBL document CHEMBL1135623, “Synthesis and pharmacological evaluation of 1-[(1,2-diphenyl-1H-4-imidazolyl)methyl]-4-phenylpiperazines with clozapine-like mixed activities at dopamine D(2), serotonin, and GABA(A) receptors” (J Med Chem, 2002).

How the values were obtained:
[1] = molecular target: T1, 5-hydroxytryptamine receptor 1A (Rattus norvegicus, UniProt P19327); assay: In vitro binding affinity for serotonin 5-hydroxytryptamine 1A receptor fof rat cerebral cortex using [3H]8-OH-DPAT as radioligand; format: tissue-based
T1 sequence (P19327 whole entry): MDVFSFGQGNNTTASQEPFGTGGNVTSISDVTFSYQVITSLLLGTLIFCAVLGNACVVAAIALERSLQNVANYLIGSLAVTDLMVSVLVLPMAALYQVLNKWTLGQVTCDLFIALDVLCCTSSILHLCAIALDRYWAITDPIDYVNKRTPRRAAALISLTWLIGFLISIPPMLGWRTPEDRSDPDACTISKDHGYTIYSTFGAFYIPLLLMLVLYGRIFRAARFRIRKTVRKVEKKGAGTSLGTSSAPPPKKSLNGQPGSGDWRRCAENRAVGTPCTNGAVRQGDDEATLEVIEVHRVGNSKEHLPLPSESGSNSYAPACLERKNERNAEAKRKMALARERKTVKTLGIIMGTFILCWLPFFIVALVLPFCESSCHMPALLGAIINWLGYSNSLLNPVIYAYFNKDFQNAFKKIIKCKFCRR

[2] = molecular target: 5-hydroxytryptamine receptor 2A (Rattus norvegicus, UniProt P14842); assay: In vitro binding affinity for serotonin 5-hydroxytryptamine 2A receptor of rat cerebral cortex using [3H]ketanserin as radioligand; format: tissue-based
Sequence of 5-hydroxytryptamine receptor 2A (P14842 whole entry): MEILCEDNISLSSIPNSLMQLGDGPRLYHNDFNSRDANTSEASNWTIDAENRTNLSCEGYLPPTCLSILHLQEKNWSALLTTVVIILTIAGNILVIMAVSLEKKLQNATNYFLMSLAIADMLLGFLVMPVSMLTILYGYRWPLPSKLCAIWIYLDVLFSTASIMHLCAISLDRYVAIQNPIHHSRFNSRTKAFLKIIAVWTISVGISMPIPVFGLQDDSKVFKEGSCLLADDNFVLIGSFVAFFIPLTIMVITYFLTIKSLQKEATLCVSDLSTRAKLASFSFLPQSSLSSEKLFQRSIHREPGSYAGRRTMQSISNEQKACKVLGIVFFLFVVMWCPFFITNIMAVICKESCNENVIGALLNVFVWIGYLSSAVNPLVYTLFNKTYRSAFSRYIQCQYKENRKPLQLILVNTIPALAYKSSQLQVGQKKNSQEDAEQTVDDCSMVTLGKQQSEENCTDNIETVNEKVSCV

| Structure (SMILES) | IC50 [1] [nM] | IC50 [2] [nM] |
| --- | --- | --- |
| CCOc1ccccc1N1CCN(Cc2cn(-c3ccc(F)cc3)c(-c3ccc(F)cc3)n2)CC1 | 51.9 |  |
| FC(F)(F)c1ccc(N2CCN(Cc3cn(-c4ccccc4)c(-c4ccccc4)n3)CC2)cc1 | 224 | 1510 |
| Fc1ccc(-c2nc(CN3CCN(c4ccccc4)CC3)cn2-c2ccc(F)cc2)cc1 | 525 | 783 |
| COc1ccccc1N1CCN(Cc2cn(-c3ccc(F)cc3)c(-c3ccc(F)cc3)n2)CC1 | 171 | 259 |
| CCOc1ccccc1N1CCN(Cc2cn(-c3ccccc3)c(-c3ccccc3)n2)CC1 | 56.9 | 172 |
| COc1ccc(N2CCN(Cc3cn(-c4ccccc4)c(-c4ccccc4)n3)CC2)cc1 | 8440 | 1920 |
| FC(F)(F)c1cccc(N2CCN(Cc3cn(-c4ccccc4)c(-c4ccccc4)n3)CC2)c1 | 206 | 2130 |
| COc1cccc(N2CCN(Cc3cn(-c4ccccc4)c(-c4ccccc4)n3)CC2)c1 | 271 | 2340 |
| CN1CCN(Cc2cn(-c3ccccc3)c(-c3ccccc3)n2)CC1 |  | > 10000 |
| CN(C)CCCSc1ccccc1NC(=O)/C=C/c1ccccc1 [CINANSERIN] |  | 14.8 |

Second part, the compound after the results:

| IC50 [1] [nM] | IC50 [2] [nM] | Structure (SMILES) |
| --- | --- | --- |
| 806 | 501 | Fc1ccc(N2CCN(Cc3cn(-c4ccccc4)c(-c4ccccc4)n3)CC2)cc1 |
| 166 | 717 | Clc1cccc(N2CCN(Cc3cn(-c4ccccc4)c(-c4ccccc4)n3)CC2)c1 |
| 2700 | > 10000 | c1ccc(-c2nc(CN3CCN(c4ccccc4)CC3)cn2-c2ccccc2)cc1 |
| 255 | 142 | Clc1ccccc1N1CCN(Cc2cn(-c3ccccc3)c(-c3ccccc3)n2)CC1 |
| 197 | 2020 | c1ccc(-c2nc(CN3CCN(c4ccccn4)CC3)cn2-c2ccccc2)cc1 |
| 1890 | 315 | Clc1ccc(N2CCN(Cc3cn(-c4ccccc4)c(-c4ccccc4)n3)CC2)cc1 |
| 1130 | 2170 | c1ccc(CN2CCN(Cc3cn(-c4ccccc4)c(-c4ccccc4)n3)CC2)cc1 |
| 332 | 25.3 | Fc1ccccc1N1CCN(Cc2cn(-c3ccccc3)c(-c3ccccc3)n2)CC1 |
|  | 131 | COc1ccccc1N1CCN(Cc2cn(-c3ccccc3)c(-c3ccccc3)n2)CC1 |
